Measured values from the NIST ThermoML archive (doi:10.1021/acs.jced.8b00487).
“And” between values parts separate entries of the source, which are not always exact repeats. Equal entries are not always repeated. Numbers after ± are expanded uncertainties.

Key:
[1] = 298.15 K; 101.33 kPa; Liquid; Vibrating tube method
[2] = xn = mol fraction of the nth substance listed; conditions: 298.15 K, 101 kPa, Liquid, Vibrating tube method

Compound `Cc1ccccc1C` [1,2-dimethylbenzene] has a mass density [1] of 875.6 ± 0.5 kg/m3.

`CCCCC(CC)COP(=O)(O)OCC(CC)CCCC` (stereo unspecified) [bis(2-ethylhexyl) hydrogen phosphate] + CCCCC(CC)COP(=O)([O-])OCC(CC)CCCC.CCCCC(CC)COP(=O)([O-])OCC(CC)CCCC.CCCCC(CC)COP(=O)([O-])OCC(CC)CCCC.[Dy+3] gave a mass density ([2]; x2 = 0) of 971 ± 2 kg/m3.

With `CCCCC(CC)COP(=O)(O)OCC(CC)CCCC` (stereo unspecified) [bis(2-ethylhexyl) hydrogen phosphate] + CCCCC(CC)COP(=O)([O-])OCC(CC)CCCC.CCCCC(CC)COP(=O)([O-])OCC(CC)CCCC.CCCCC(CC)COP(=O)([O-])OCC(CC)CCCC.[Eu+3] the mass density ([2]; x2 = 0) was 970.5 ± 2 kg/m3.

Compound `CCCCC(CC)COP(=O)(O)OCC(CC)CCCC` (stereo unspecified) [bis(2-ethylhexyl) hydrogen phosphate] + CCCCC(CC)COP(=O)([O-])OCC(CC)CCCC.CCCCC(CC)COP(=O)([O-])OCC(CC)CCCC.CCCCC(CC)COP(=O)([O-])OCC(CC)CCCC.[Gd+3] has a mass density ([2]; x2 = 0) of 970.5 ± 2 kg/m3.

With `CCCCC(CC)COP(=O)(O)OCC(CC)CCCC` (stereo unspecified) [bis(2-ethylhexyl) hydrogen phosphate] + CCCCC(CC)COP(=O)([O-])OCC(CC)CCCC.CCCCC(CC)COP(=O)([O-])OCC(CC)CCCC.CCCCC(CC)COP(=O)([O-])OCC(CC)CCCC.[Nd+3] the mass density ([2]; x2 = 0) was 971 ± 2 kg/m3 and 969.1 ± 2 kg/m3 and 970.5 ± 2 kg/m3.

In the case of `CCCCC(CC)COP(=O)(O)OCC(CC)CCCC` (stereo unspecified) [bis(2-ethylhexyl) hydrogen phosphate] + CCCCC(CC)COP(=O)([O-])OCC(CC)CCCC.CCCCC(CC)COP(=O)([O-])OCC(CC)CCCC.CCCCC(CC)COP(=O)([O-])OCC(CC)CCCC.[Sm+3], the mass density ([2]; x2 = 0) is reported as 971 ± 2 kg/m3 and 970.5 ± 2 kg/m3.

`CCCCC(CC)COP(=O)(O)OCC(CC)CCCC` (stereo unspecified) [bis(2-ethylhexyl) hydrogen phosphate] + CCCCC(CC)COP(=O)([O-])OCC(CC)CCCC.CCCCC(CC)COP(=O)([O-])OCC(CC)CCCC.CCCCC(CC)COP(=O)([O-])OCC(CC)CCCC.[Tb+3] showed a mass density ([2]; x2 = 0) of 970.5 ± 2 kg/m3.

For `CCCCC(CC)COP(=O)(O)OCC(CC)CCCC` (stereo unspecified) [bis(2-ethylhexyl) hydrogen phosphate] + Cc1ccccc1C, the mass density ([2]; x2 = 0.5002) was 946.2 ± 4 kg/m3 and 946.1 ± 4 kg/m3, the mass density ([2]; x2 = 0.5198) was 944.7 ± 4 kg/m3 and the mass density ([2]; x2 = 0.5201) was 944.6 ± 4 kg/m3. The mass density ([2]; x2 = 0.7313) was 924.4 ± 4 kg/m3, the mass density ([2]; x2 = 0.8195) was 912.6 ± 4 kg/m3 and 912.4 ± 4 kg/m3 and the mass density ([2]; x2 = 0.8197) was 912.5 ± 4 kg/m3. The mass density ([2]; x2 = 0.8203) was 912.4 ± 4 kg/m3, the mass density ([2]; x2 = 0.8204) was 912.2 ± 4 kg/m3 and the mass density ([2]; x2 = 0.9275) was 893.2 ± 4 kg/m3 and 892.9 ± 4 kg/m3. The mass density ([2]; x2 = 0.9406) was 890.1 ± 4 kg/m3 and 890.3 ± 4 kg/m3 and 890 ± 4 kg/m3, the mass density ([2]; x2 = 0.9759) was 882 ± 4 kg/m3 and the mass density ([2]; x2 = 0.976) was 882 ± 4 kg/m3 and 881.9 ± 4 kg/m3 and 881.8 ± 4 kg/m3.

With `CCCCC(CC)COP(=O)([O-])OCC(CC)CCCC.CCCCC(CC)COP(=O)([O-])OCC(CC)CCCC.CCCCC(CC)COP(=O)([O-])OCC(CC)CCCC.[Dy+3]` (stereo unspecified) [dysprosium(III) bis(2-ethylhexyl) phosphate] + CCCCC(CC)COP(=O)(O)OCC(CC)CCCC the mass density ([2]; x1 = 0.0039) was 973.1 ± 2 kg/m3, the mass density ([2]; x1 = 0.00883) was 975.7 ± 2 kg/m3 and the mass density ([2]; x1 = 0.02055) was 981.6 ± 2 kg/m3. For the same compound, the mass density ([2]; x1 = 0.03494) was 988.7 ± 2 kg/m3 and the mass density ([2]; x1 = 0.04879) was 995.1 ± 2 kg/m3.

Compound `CCCCC(CC)COP(=O)([O-])OCC(CC)CCCC.CCCCC(CC)COP(=O)([O-])OCC(CC)CCCC.CCCCC(CC)COP(=O)([O-])OCC(CC)CCCC.[Eu+3]` (stereo unspecified) [europium(III) bis(2-ethylhexyl) phosphate] + CCCCC(CC)COP(=O)(O)OCC(CC)CCCC has a mass density ([2]; x1 = 0.01457) of 977.5 ± 2 kg/m3, a mass density ([2]; x1 = 0.03221) of 985.6 ± 2 kg/m3 and a mass density ([2]; x1 = 0.04158) of 989.9 ± 2 kg/m3. It also gave a mass density ([2]; x1 = 0.05518) of 995.6 ± 2 kg/m3 and a mass density ([2]; x1 = 0.07111) of 1001.7 ± 2 kg/m3.

In the case of `CCCCC(CC)COP(=O)([O-])OCC(CC)CCCC.CCCCC(CC)COP(=O)([O-])OCC(CC)CCCC.CCCCC(CC)COP(=O)([O-])OCC(CC)CCCC.[Gd+3]` (stereo unspecified) [gadolinium(III) bis(2-ethylhexyl) phosphate] + CCCCC(CC)COP(=O)(O)OCC(CC)CCCC, the mass density ([2]; x1 = 0.01568) is reported as 978.4 ± 2 kg/m3, the mass density ([2]; x1 = 0.0349) is reported as 987.4 ± 2 kg/m3 and the mass density ([2]; x1 = 0.04335) is reported as 991.2 ± 2 kg/m3. The mass density ([2]; x1 = 0.05925) was 997.8 ± 2 kg/m3.

With `CCCCC(CC)COP(=O)([O-])OCC(CC)CCCC.CCCCC(CC)COP(=O)([O-])OCC(CC)CCCC.CCCCC(CC)COP(=O)([O-])OCC(CC)CCCC.[Nd+3]` (stereo unspecified) [neodymium(III) bis(2-ethylhexyl) phosphate] + CCCCC(CC)COP(=O)(O)OCC(CC)CCCC the mass density ([2]; x1 = 0.01187) was 976.8 ± 2 kg/m3, the mass density ([2]; x1 = 0.01364) was 975.7 ± 2 kg/m3 and the mass density ([2]; x1 = 0.01427) was 977.3 ± 2.1 kg/m3. The mass density ([2]; x1 = 0.02626) was 981.7 ± 2.5 kg/m3, the mass density ([2]; x1 = 0.02653) was 983.6 ± 2.5 kg/m3 and the mass density ([2]; x1 = 0.02822) was 983.8 ± 2 kg/m3. It also gave a mass density ([2]; x1 = 0.03921) of 988.6 ± 2 kg/m3, a mass density ([2]; x1 = 0.0402) of 987.6 ± 2 kg/m3 and a mass density ([2]; x1 = 0.04214) of 990.4 ± 2 kg/m3. The mass density ([2]; x1 = 0.04446) was 991 ± 2 kg/m3, the mass density ([2]; x1 = 0.04708) was 992.1 ± 2 kg/m3 and the mass density ([2]; x1 = 0.04955) was 991.6 ± 2 kg/m3. It also gave a mass density ([2]; x1 = 0.05317) of 994.9 ± 2 kg/m3, a mass density ([2]; x1 = 0.0729) of 1002.3 ± 2 kg/m3 and a mass density ([2]; x1 = 0.07322) of 1002.5 ± 2 kg/m3. The mass density ([2]; x1 = 0.07707) was 1002.6 ± 2 kg/m3 and the mass density ([2]; x1 = 0.0837) was 1006.6 ± 2 kg/m3.

In the case of `CCCCC(CC)COP(=O)([O-])OCC(CC)CCCC.CCCCC(CC)COP(=O)([O-])OCC(CC)CCCC.CCCCC(CC)COP(=O)([O-])OCC(CC)CCCC.[Sm+3]` (stereo unspecified) [samarium(III) bis(2-ethylhexyl) phosphate] + CCCCC(CC)COP(=O)(O)OCC(CC)CCCC, the mass density ([2]; x1 = 0.00583) is reported as 974 ± 2 kg/m3, the mass density ([2]; x1 = 0.01288) is reported as 976.9 ± 2 kg/m3 and the mass density ([2]; x1 = 0.01616) is reported as 978.9 ± 2 kg/m3. For the same compound, the mass density ([2]; x1 = 0.02646) was 983.1 ± 2 kg/m3, the mass density ([2]; x1 = 0.03185) was 986.2 ± 2 kg/m3 and the mass density ([2]; x1 = 0.03372) was 986.4 ± 2 kg/m3. For the same compound, the mass density ([2]; x1 = 0.05017) was 993.9 ± 2 kg/m3, the mass density ([2]; x1 = 0.05958) was 997.2 ± 2 kg/m3 and the mass density ([2]; x1 = 0.06022) was 998.2 ± 2 kg/m3. For the same compound, the mass density ([2]; x1 = 0.07053) was 1001.8 ± 2 kg/m3.

Work on `CCCCC(CC)COP(=O)([O-])OCC(CC)CCCC.CCCCC(CC)COP(=O)([O-])OCC(CC)CCCC.CCCCC(CC)COP(=O)([O-])OCC(CC)CCCC.[Tb+3]` (stereo unspecified) [terbium(III) bis(2-ethylhexyl) phosphate] + CCCCC(CC)COP(=O)(O)OCC(CC)CCCC yielded a mass density ([2]; x1 = 0.00621) of 973.7 ± 2 kg/m3, a mass density ([2]; x1 = 0.0103) of 975.8 ± 2 kg/m3 and a mass density ([2]; x1 = 0.01167) of 976.6 ± 2 kg/m3. It also gave a mass density ([2]; x1 = 0.01875) of 980 ± 2 kg/m3, a mass density ([2]; x1 = 0.02771) of 984.4 ± 2 kg/m3 and a mass density ([2]; x1 = 0.04671) of 993.3 ± 2 kg/m3.
